The values that follow are results of earlier work, collected in patent US9248110B2, “Compositions and methods of treating and preventing lung cancer and lymphangioleiomyomatosis” (priority 2010, dated 2016).

Molecules are shown by their SMILES. Where two headings read alike, the source gives them in different places.

The series concerns Lewis lung LLC1 cells. The conditions noted are these: orally administered.

With `CN(C)C(=N)N=C(N)N` [metformin], the tumor growth result by setting is: (mice fed a high-energy diet) “reduce tumor growth”; (mice on a control diet) “no effect on tumor growth”.
